Assay results reported in ChEMBL document CHEMBL5500346, “Targeting EGFR degradation by autophagosome degraders” (Eur J Med Chem, 2024).
Activity calls are given as the source filed them. No cut-off for these calls is given here.

Experiments:
[1] = target: T1, Microtubule-associated protein 1 light chain 3 beta/Epidermal growth factor receptor (Homo sapiens, UniProt P00533+Q9GZQ8); test: ATTEC activity at LC3B/EGFR in human A549 cells assessed as protein degradation; format: cell-based
[2] = target: T1, Microtubule-associated protein 1 light chain 3 beta/Epidermal growth factor receptor; test: ATTEC activity at LC3B/EGFR in human HCC827 cells assessed as protein degradation at 1 uM incubated for 18 hrs by global proteomic profiling analysis; format: cell-based
[3] = Toxicity in C57BL/6 mouse assessed as body weight loss upto 200 mg/kg, ip measured after 24 hrs; format: organism-based; settings: in vivo
[4] = target: T1, Microtubule-associated protein 1 light chain 3 beta/Epidermal growth factor receptor; test: ATTEC activity at LC3B/EGFR in human PC-9 cells assessed as protein degradation; format: cell-based
[5] = Toxicity in C57BL/6 mouse assessed as serum GGT level at 200 mg/kg, ip measured after 24 hrs (reference value: 1.62 U/L); format: organism-based; settings: in vivo
PC-9 [6] = test: Inhibition of colony formation in human PC-9 cells incubated for 2 weeks by crystal violet staining based analysis; format: functional, cell-based; settings: dose 0.1-10 µM
[7] = target: T1, Microtubule-associated protein 1 light chain 3 beta/Epidermal growth factor receptor; test: ATTEC activity at LC3B/EGFR in human HCC827 cells assessed as protein degradation at 1 uM measured after 12 hrs by Western blot analysis relative to control; format: cell-based
[8] = Half life in Sprague-Dawley rat at 20 mg/kg, po; format: ADME, organism-based; settings: in vivo
[9] = Toxicity in C57BL/6 mouse assessed as serum uric acid level at 200 mg/kg, ip measured after 24 hrs (reference value: 78.784 umol/L); format: organism-based; settings: in vivo
[10] = target: T1, Microtubule-associated protein 1 light chain 3 beta/Epidermal growth factor receptor; test: Binding affinity to biotinylated LC3B/EGFR in human HCC827 cells assessed as dissociation constant BLI assay; format: cell-based
[11] = Toxicity in NOD-SCID mouse bearing human PC-9 cells assessed as body weight loss at 5 to 20 mg/kg, ip administered every other day for 3 weeks; format: organism-based; settings: in vivo, 504 h, dose 5-20 mg/kg
[12] = target: T1, Microtubule-associated protein 1 light chain 3 beta/Epidermal growth factor receptor; test: ATTEC activity at LC3B/EGFR in human HCC827 cells assessed as protein degradation at 1 uM measured after 48 hrs by Western blot analysis; format: cell-based
[13] = Toxicity in C57BL/6 mouse assessed as serum urea level at 100 mg/kg, ip measured after 24 hrs (reference value: 18.934 mmol/L); format: organism-based; settings: in vivo
[14] = target: T1, Microtubule-associated protein 1 light chain 3 beta/Epidermal growth factor receptor; test: ATTEC activity at LC3B/EGFR in chloroquine-treated human HCC827 cells assessed as protein degradation at 1 uM incubated for 16 hrs by Western blot analysis; format: cell-based
[15] = target: T1, Microtubule-associated protein 1 light chain 3 beta/Epidermal growth factor receptor; test: ATTEC activity at LC3B/EGFR in human HCC827 cells assessed as protein degradation; format: cell-based
PC-9 [16] = test: In vivo ATTEC activity at LC3B/EGFR in human PC-9 cells implanted in NOD-SCID mouse assessed as protein degradation at 10 mg/kg, ip administered every other day for 3 weeks by Western blot analysis; format: functional, organism-based
[17] = target: T1, Microtubule-associated protein 1 light chain 3 beta/Epidermal growth factor receptor; test: ATTEC activity at LC3B/EGFR in MG132-treated human HCC827 cells assessed as protein degradation at 1 uM incubated for 12 hrs by Western blot analysis; format: cell-based
[18] = Toxicity in C57BL/6 mouse assessed as serum creatinine level at 200 mg/kg, ip measured after 24 hrs (reference value: 32.258 umol/L); format: organism-based; settings: in vivo
[19] = Toxicity in C57BL/6 mouse assessed as serum urea level at 200 mg/kg, ip measured after 24 hrs (reference value: 18.934 mmol/L); format: organism-based; settings: in vivo
[20] = Toxicity in C57BL/6 mouse assessed as serum GGT level at 100 mg/kg, ip measured after 24 hrs (reference value: 1.62 U/L); format: organism-based; settings: in vivo
[21] = target: T1, Microtubule-associated protein 1 light chain 3 beta/Epidermal growth factor receptor; test: ATTEC activity at LC3B/EGFR in MLN4924-treated human HCC827 cells assessed as protein degradation at 1 uM incubated for 12 hrs by Western blot analysis; format: cell-based
PC-9 [22] = test: Anti-tumor activity against human PC-9 cells implanted in NOD-SCID mouse at 10 mg/kg, ip administered every other day for 3 weeks relative to control; format: functional; settings: PC-9, 504 h, read-out: TGI
[23] = Toxicity in C57BL/6 mouse assessed as tremor upto 200 mg/kg, ip measured after 24 hrs; format: organism-based; settings: in vivo
[24] = Toxicity in C57BL/6 mouse assessed as serum AST level at 200 mg/kg, ip measured after 24 hrs (reference value: 234.682 U/L); format: organism-based; settings: in vivo
[25] = target: T1, Microtubule-associated protein 1 light chain 3 beta/Epidermal growth factor receptor; test: ATTEC activity at LC3B/EGFR in Gefitinib-resistant human PC-9 cells assessed as protein degradation; format: cell-based
[26] = target: T1, Microtubule-associated protein 1 light chain 3 beta/Epidermal growth factor receptor; test: ATTEC activity at LC3B/EGFR in human NCI-H3255 cells assessed as protein degradation; format: cell-based
[27] = Toxicity in C57BL/6 mouse assessed as serum ALB level at 200 mg/kg, ip measured after 24 hrs (reference value: 40.01 g/L); format: organism-based; settings: in vivo
[28] = Toxicity in C57BL/6 mouse assessed as histological change in kidney upto 200 mg/kg, ip measured after 24 hrs by H and E staining based analysis; format: organism-based; settings: in vivo
[29] = Toxicity in C57BL/6 mouse assessed as serum uric acid level at 100 mg/kg, ip measured after 24 hrs (reference value: 78.784 umol/L); format: organism-based; settings: in vivo
NCI-H1975 = test: Antiproliferative activity against human NCI-H1975 cells incubated for 72 hrs by CCK8 assay; format: functional, cell-based; settings: NCI-H1975, 72 h
PC-9 [30] = test: Anti-tumor activity against human PC-9 cells implanted in NOD-SCID mouse at 5 mg/kg, ip administered every other day for 3 weeks relative to control; format: functional; settings: PC-9, 504 h, read-out: TGI
[31] = Toxicity in C57BL/6 mouse assessed as histological change in heart upto 200 mg/kg, ip measured after 24 hrs by H and E staining based analysis; format: organism-based; settings: in vivo
[32] = Toxicity in C57BL/6 mouse assessed as serum TBIL level at 200 mg/kg, ip measured after 24 hrs (reference value: 18.958 umol/L); format: organism-based; settings: in vivo
[33] = Toxicity in C57BL/6 mouse assessed as dyspnea upto 200 mg/kg, ip measured after 24 hrs; format: organism-based; settings: in vivo
[34] = Toxicity in C57BL/6 mouse assessed as histological change in liver upto 200 mg/kg, ip measured after 24 hrs by H and E staining based analysis; format: organism-based; settings: in vivo
PC-9 [35] = test: Anti-tumor activity against human PC-9 cells implanted in NOD-SCID mouse at 20 mg/kg, ip administered every other day for 3 weeks relative to control; format: functional; settings: PC-9, 504 h, read-out: TGI
[36] = Toxicity in C57BL/6 mouse assessed as serum ALB level at 100 mg/kg, ip measured after 24 hrs (reference value: 40.01 g/L); format: organism-based; settings: in vivo
PC-9 [37] = test: Antiproliferative activity against human PC-9 cells incubated for 72 hrs by CCK8 assay; format: functional, cell-based; settings: PC-9, 72 h
A549 = test: Antiproliferative activity against human A549 cells incubated for 72 hrs by CCK8 assay; format: functional, cell-based; settings: A549, 72 h
HCC827 = test: Antiproliferative activity against human HCC827 cells incubated for 72 hrs by CCK8 assay; format: functional, cell-based; settings: HCC827, 72 h
[38] = target: T1, Microtubule-associated protein 1 light chain 3 beta/Epidermal growth factor receptor; test: ATTEC activity at LC3B/EGFR in human HCC827 cells assessed as protein degradation by immunoblot analysis; format: cell-based

- Activity [1]: inactive
- Activity [2]: Active
- Activity [4]: Active
- Activity [7]: 68%
- half-life [8]: 18.4 min
- Kd [10]: 710 nM
- Activity [12]: Active
- Activity [14]: inactive
- Activity [15]: Active
- Activity [17]: Active
- Activity [21]: Active
- Activity [25]: inactive
- Activity [26]: Active
- IC50 (NCI-H1975): > 10000 nM
- IC50 (PC-9 [37]): 5610 nM
- IC50 (A549): > 10000 nM
- IC50 (HCC827): 278 nM
- DC50 [38]: 980 nM
Compound: COc1cc2ncnc(Nc3ccc(F)c(Cl)c3)c2cc1OCCOCCOCCOCCNC(=O)COc1c(Br)cc(/C=C2\C(=O)Nc3ccc(I)cc32)cc1Br
- Activity [3]: Non-Toxic
- Activity [5]: 1.712 U/L
- inhibition (PC-9 [6]): Dose-Dependent Effect
- Activity [9]: 49.734 µmol/L
- Activity [11]: Non-Toxic
- Activity [13]: 19.63 mmol/L
- Activity (PC-9 [16]): Active
- Activity [18]: 30.848 µmol/L
- Activity [19]: 19.029 mmol/L
- Activity [20]: 1.682 U/L
- inhibition in vivo at 10 mg/kg (PC-9 [22]): 51.6%
- Activity [23]: Non-Toxic
- Activity [24]: 159.506 U/L
- Activity [27]: 40.048 g/L
- Activity [28]: Non-Toxic
- Activity [29]: 44.454 µmol/L
- inhibition in vivo at 5 mg/kg (PC-9 [30]): 35%
- Activity [31]: Non-Toxic
- Activity [32]: 16.068 µmol/L
- Activity [33]: Non-Toxic
- Activity [34]: Non-Toxic
- inhibition in vivo at 20 mg/kg (PC-9 [35]): 63.4%
- Activity [36]: 35.48 g/L
